Laboratory results from PubChem BioAssay AID256 (DTP/NCI, 2004).
Values joined by “and” are separate entries in the source; they are usually repeats but may differ in a detail not shown here. Equal values may be shown once. Inconclusive results and toxic doses are left out. The calls were made as follows: active = survival T/C of 150% or more; inactive = T/C below 125% in these data.

Tested on: CD2F1 mice, L1210 leukemia ip, survival T/C
Assay: NCI In Vivo Anticancer Drug Screen. Data for tumor model L1210 Leukemia (intraperitoneal) in CD2F1 (CDF1) mice
Details: higher = longer survival
Summary of the method: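 Mice carrying a transplanted tumor received test compound or vehicle alone. The value is the measurement in the treated group divided by that in the vehicle-treated control group.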

[1] = endpoint: mean survival time, dose: 100.0 mg/kg/injection, schedule: Q01DX009 (ip), vehicle: saline with Tween-80
[2] = endpoint: mean survival time, dose: 200.0 mg/kg/injection, schedule: Q01DX009 (ip), vehicle: saline with Tween-80
[3] = endpoint: mean survival time, dose: 400.0 mg/kg/injection, schedule: Q01DX009 (ip), vehicle: saline with Tween-80
[4] = endpoint: mean survival time, dose: 100.0 mg/kg/injection, schedule: Q04DX003 (ip), vehicle: saline with Tween-80
[5] = endpoint: mean survival time, dose: 200.0 mg/kg/injection, schedule: Q04DX003 (ip), vehicle: saline with Tween-80
[6] = endpoint: mean survival time, dose: 400.0 mg/kg/injection, schedule: Q04DX003 (ip), vehicle: saline with Tween-80
[7] = endpoint: mean survival time, dose: 12.5 mg/kg/injection, schedule: Q04DX003 (ip), vehicle: saline with Tween-80
[8] = endpoint: mean survival time, dose: 25.0 mg/kg/injection, schedule: Q04DX003 (ip), vehicle: saline with Tween-80

Measured: T/C

c1ccc([P+](Cc2ccc(C[P+](c3ccccc3)(c3ccccc3)c3ccccc3)cc2)(c2ccccc2)c2ccccc2)cc1
inactive: endpoint: mean survival time, dose: 0.07 mg/kg/injection, schedule: Q01DX009 (ip), vehicle: saline sonified 94 % of control | endpoint: mean survival time, dose: 0.07 mg/kg/injection, schedule: Q04DX003 (ip), vehicle: saline with Tween-80 97 % of control | endpoint: mean survival time, dose: 0.15 mg/kg/injection, schedule: Q01DX009 (ip), vehicle: saline sonified 98 % of control | endpoint: mean survival time, dose: 0.15 mg/kg/injection, schedule: Q04DX003 (ip), vehicle: saline with Tween-80 93 % of control | endpoint: mean survival time, dose: 0.3 mg/kg/injection, schedule: Q01DX009 (ip), vehicle: saline sonified 93 % of control | endpoint: mean survival time, dose: 0.3 mg/kg/injection, schedule: Q04DX003 (ip), vehicle: saline with Tween-80 93 % of control | endpoint: mean survival time, dose: 0.6 mg/kg/injection, schedule: Q01DX009 (ip), vehicle: saline sonified 96 % of control | endpoint: mean survival time, dose: 0.6 mg/kg/injection, schedule: Q04DX003 (ip), vehicle: saline with Tween-80 98 % of control

CCOC(=O)c1c[nH]n(C2OC(CO)C(O)C2O)c1=O (stereo not drawn)
inactive: endpoint: median survival time, dose: 45.5 mg/kg/injection, schedule: Q01DX005 (ip), vehicle: saline 96 % of control | endpoint: median survival time, dose: 90.9 mg/kg/injection, schedule: Q01DX005 (ip), vehicle: saline 96 % of control | endpoint: median survival time, dose: 181.9 mg/kg/injection, schedule: Q01DX005 (ip), vehicle: saline 98 % of control

CCOC(=O)C(OC(=O)CC)c1ccccc1 (stereo not drawn)
inactive: [1] 96 % of control | [2] 100 % of control | [3] 102 % of control

COc1ccc(CCN(C=O)CCc2ccc(OC)c(OC)c2)cc1OC
inactive: endpoint: mean survival time, dose: 12.5 mg/kg/injection, schedule: Q01DX009 (ip), vehicle: other 98 % of control | endpoint: mean survival time, dose: 25.0 mg/kg/injection, schedule: Q01DX009 (ip), vehicle: other 101 % of control | endpoint: mean survival time, dose: 50.0 mg/kg/injection, schedule: Q01DX009 (ip), vehicle: other 93 % of control | endpoint: mean survival time, dose: 100.0 mg/kg/injection, schedule: Q01DX009 (ip), vehicle: other 103 % of control | endpoint: mean survival time, dose: 200.0 mg/kg/injection, schedule: Q01DX009 (ip), vehicle: other 103 % of control

COc1cc(/C=N/N2CCCCC2)cc(OC)c1OC
inactive: [4] 104 % of control | [5] 95 % of control | [6] 111 % of control

CCCCCCCCCCCCCCCC[n+]1ccc(C(N)=O)cc1
inactive: endpoint: mean survival time, dose: 12.5 mg/kg/injection, schedule: Q01DX009 (ip), vehicle: saline with Tween-80 105 % of control | [7] 100 % of control | [8] 98 % of control | endpoint: mean survival time, dose: 50.0 mg/kg/injection, schedule: Q04DX003 (ip), vehicle: saline with Tween-80 97 % of control

CCCC(C)C/C(C)=C/C(C)(C)C(CC(=O)N1CCOCC1)C(=O)O (stereo not drawn)
inactive: endpoint: mean survival time, dose: 50.0 mg/kg/injection, schedule: Q01DX009 (ip), vehicle: saline with Tween-80 95 % of control | [1] 93 % of control | [4] 100 % of control | [5] 98 % of control

CN(Cc1ccccc1)N=Nc1ccc(C#N)cc1
inactive: [1] 104 % of control | [2] 112 % of control | [3] 112 % of control

CCC1(O)C(=O)OCc2c1cc1n(c2=O)Cc2cc3ccc(C#N)cc3nc2-1 (stereo not drawn)
inactive: endpoint: median survival time, dose: 20.0 mg/kg/injection, schedule: Q04DX002 (ip), vehicle: saline with Tween-80 101 % of control and 103 % of control
active: endpoint: median survival time, dose: 2.5 mg/kg/injection, schedule: Q04DX002 (ip), vehicle: saline with Tween-80 152 % of control | endpoint: median survival time, dose: 5.0 mg/kg/injection, schedule: Q04DX002 (ip), vehicle: saline with Tween-80 196 % of control | endpoint: median survival time, dose: 10.0 mg/kg/injection, schedule: Q04DX002 (ip), vehicle: saline with Tween-80 250 % of control and 365 % of control

[Cl][Pt+2][Cl].[NH-]CCN(CCN)CCN
inactive: [7] 97 % of control | [8] 98 % of control

CC(C)OC(=O)N(C(=O)OC(C)C)c1ccc(Cl)cc1
inactive: endpoint: mean survival time, dose: 100.0 mg/kg/injection, schedule: Q04DX002 (ip), vehicle: saline with Tween-80 97 % of control | endpoint: mean survival time, dose: 200.0 mg/kg/injection, schedule: Q04DX002 (ip), vehicle: saline with Tween-80 94 % of control | endpoint: mean survival time, dose: 400.0 mg/kg/injection, schedule: Q04DX002 (ip), vehicle: saline with Tween-80 102 % of control

CN(C1=CC(=O)C(C)(C)c2ccccc21)C1CCCCC1
inactive: [4] 95 % of control | [5] 91 % of control | [6] 94 % of control

O=C1OC(=O)N2N=CC=CC12 (stereo not drawn)
inactive: endpoint: mean survival time, dose: 100.0 mg/kg/injection, schedule: Q01DX001 (ip), vehicle: saline sonified 96 % of control | endpoint: mean survival time, dose: 200.0 mg/kg/injection, schedule: Q01DX001 (ip), vehicle: saline sonified 98 % of control | endpoint: mean survival time, dose: 400.0 mg/kg/injection, schedule: Q01DX001 (ip), vehicle: saline sonified 94 % of control
